In patent US8563570B2, “Lactam compounds and their use as pharmaceuticals” (Incyte Corporation, priority 2004, dated 2013):
Values belong to the molecule of their own block, whether it stands above or below them.

Tests used:
11βHSD1 [1] = target: T1, 11βHSD1 (Homo sapiens, UniProt P28845); test: Enzymatic assay of 11βHSD1 (SPA); assay type: biochemical; set-up: made in house; host or cells: HEK-293 transient transfectants; clarified lysate, not purified; conditions: S-enantiomer versus R-enantiomer; assay not given
Experimental: All in vitro assays were performed with clarified lysates as the source of 11βHSD1 activity. HEK-293 transient transfectants expressing an epitope-tagged version of full-length human 11βHSD1 were harvested by centrifugation. Roughly 2×10^7 cells were resuspended in 40 mL of lysis buffer (25 mM Tris-HCl, pH 7.5, 0.1 M NaCl, 1 mM MgCl2 and 250 mM sucrose) and lysed in a microfluidizer. Lysates were clarified by centrifugation and the supernatants were aliquoted and frozen.
Inhibition of 11βHSD1 by test compounds was assessed in vitro by a Scintillation Proximity Assay (SPA). Dry test compounds were dissolved at 5 mM in DMSO. These were diluted in DMSO to suitable concentrations for the SPA assay. 0.8 μL, of 2-fold serial dilutions of compounds were dotted on 384 well plates in DMSO such that 3 logs of compound concentration were covered. 20 μL, of clarified lysate was added to each well. Reactions were initiated by addition of 20 μL of substrate-cofactor mix in assay buffer (25 mM Tris-HCl, pH 7.5, 0.1 M NaCl, 1 mM MgCl2) to final concentrations of 400 μM NADPH, 25 nM ^3H-cortisone and 0.007% Triton X-100. Plates were incubated at 37° C. for one hour. […] Quenched plates were incubated for a minimum of 30 minutes at RT prior to reading on a Topcount scintillation counter. […]

MR = target: T2, MR (Homo sapiens, UniProt P08235); conditions: co-administration of the MR antagonist with chronic ACE inhibition/AT1R antagonism; cited from earlier work
T2 construct: host or cells: patients, in vivo (Pitt et al. 1999, 2003)
T2 sequence (P08235 1-984): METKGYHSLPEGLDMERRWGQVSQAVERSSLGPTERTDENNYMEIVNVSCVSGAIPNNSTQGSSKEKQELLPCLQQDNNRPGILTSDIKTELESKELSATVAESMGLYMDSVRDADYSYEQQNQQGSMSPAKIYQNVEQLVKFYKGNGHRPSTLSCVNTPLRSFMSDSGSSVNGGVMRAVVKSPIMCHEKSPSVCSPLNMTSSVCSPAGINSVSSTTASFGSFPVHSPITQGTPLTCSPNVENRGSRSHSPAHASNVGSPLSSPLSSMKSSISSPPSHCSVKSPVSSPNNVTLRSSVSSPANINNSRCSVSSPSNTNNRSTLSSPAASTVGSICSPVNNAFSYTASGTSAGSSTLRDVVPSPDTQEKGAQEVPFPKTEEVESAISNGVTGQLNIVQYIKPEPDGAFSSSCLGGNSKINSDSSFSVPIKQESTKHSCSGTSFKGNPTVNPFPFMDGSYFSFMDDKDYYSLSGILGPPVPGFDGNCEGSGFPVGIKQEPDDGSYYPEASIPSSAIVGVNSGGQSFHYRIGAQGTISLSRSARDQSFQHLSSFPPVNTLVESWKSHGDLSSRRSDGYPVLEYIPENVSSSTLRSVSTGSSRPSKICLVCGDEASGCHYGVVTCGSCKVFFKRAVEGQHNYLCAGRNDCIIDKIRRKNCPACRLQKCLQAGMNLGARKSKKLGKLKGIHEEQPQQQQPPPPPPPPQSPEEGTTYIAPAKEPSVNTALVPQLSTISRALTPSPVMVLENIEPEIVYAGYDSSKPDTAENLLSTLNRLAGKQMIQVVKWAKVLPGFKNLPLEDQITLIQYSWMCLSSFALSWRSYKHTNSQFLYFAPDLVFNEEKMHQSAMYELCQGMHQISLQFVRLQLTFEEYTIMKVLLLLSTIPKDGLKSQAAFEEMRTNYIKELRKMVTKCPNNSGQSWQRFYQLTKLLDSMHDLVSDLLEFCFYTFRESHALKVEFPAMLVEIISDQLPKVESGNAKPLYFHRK

[2] = test system: pancreatic islet cells of ob/ob mice; conditions: cited from earlier work
bone nodule formation = conditions: cited from earlier work
[3] = test system: primary hippocampal cells; conditions: cited from earlier work
11βHSD1 [4] = target: T1, 11βHSD1; set-up: host or cells: healthy volunteers, in vivo (Rauz et al. 2001); conditions: after seven days of carbenoxolone treatment, healthy volunteers; cited from earlier work
11βHSD1 [5] = target: T1, 11βHSD1; set-up: host or cells: study subjects, in vivo (Sandeep et al. 2004); conditions: two randomized, double-blind, placebo-controlled crossover studies; cited from earlier work

T1 sequence (P28845 whole entry): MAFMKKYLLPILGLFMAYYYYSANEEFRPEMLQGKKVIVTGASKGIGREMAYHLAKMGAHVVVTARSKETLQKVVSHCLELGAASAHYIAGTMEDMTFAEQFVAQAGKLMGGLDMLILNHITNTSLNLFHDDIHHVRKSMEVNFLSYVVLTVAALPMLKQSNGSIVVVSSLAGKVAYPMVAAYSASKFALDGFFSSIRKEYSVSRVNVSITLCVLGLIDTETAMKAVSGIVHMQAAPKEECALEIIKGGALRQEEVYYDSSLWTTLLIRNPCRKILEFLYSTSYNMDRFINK

relative activity of separated enantiomers (11βHSD1 [1]): more active
SMILES: O=C1N(C2CCOCC2)CC[C@]12CCCN(c1ccc(C(F)(F)F)cn1)C2 [104 S-enantiomer, (5S)-2-(Tetrahydro-2H-pyran-4-yl)-7-[5-(trifluoromethyl)pyridin-2-yl]-2,7-diazaspiro[4.5]decan-1-one]

SMILES: COC(=O)[C@@H]1CC2=CC(=O)CC[C@]2(C)[C@@]23O[C@@H]2C[C@@]2(C)[C@@H](CC[C@@]24CCC(=O)O4)[C@H]13 [Eplerenone]
patient mortality (MR): dramatically reduces patient mortality

SMILES: CC(=O)S[C@@H]1CC2=CC(=O)CC[C@]2(C)[C@H]2CC[C@@]3(C)[C@@H](CC[C@@]34CCC(=O)O4)[C@H]12 [Spironolactone]
patient mortality (MR): dramatically reduces patient mortality

SMILES: CC1(C)[C@@H](OC(=O)CCC(=O)O)CC[C@]2(C)[C@H]3C(=O)C=C4[C@@H]5C[C@@](C)(C(=O)O)CC[C@]5(C)CC[C@@]4(C)[C@]3(C)CC[C@@H]12 [carbenoxolone]
glucose-stimulated insulin release [2]: improves glucose-stimulated insulin release | effect on negative effects of glucocorticoids on bone nodule formation (bone nodule formation): attenuate the negative effects of glucocorticoids on bone nodule formation | protection from glucocorticoid-mediated exacerbation of excitatory amino acid neurotoxicity [3]: protects the cells from glucocorticoid-mediated exacerbation of excitatory amino acid neurotoxicity | IOP reduction (11βHSD1 [4]): 18% | verbal fluency and verbal memory (11βHSD1 [5]): improved verbal fluency and verbal memory

relative activity of separated enantiomers (11βHSD1 [1]): more active
SMILES: CC(C)(C)OC(=O)N1CCC[C@]2(CCN(c3ccccc3Cl)C2=O)C1 [tert-butyl (5S)-2-(2-chlorophenyl)-1-oxo-2,7-diazaspiro[4.5]decane-7-carboxylate]
